Where two headings read alike, the source gives them in different places.
Assays:
[1] = rats; cited from earlier work
[2] = mice; cited from earlier work
[3] = human, in vivo; cited from earlier work
[4] = test system: novel coronavirus (SARS-CoV-2); assay: in vitro cell-virus assay; assay type: cell-based

O=c1c2ccccc2[se]n1-c1ccccc1 [ebselen, Ebselen]
oral lethal dose [1]: > 4600 mg/kg | oral lethal dose [2]: > 2150 mg/kg | clinical safety and tolerability [3]: safe and well tolerated | replication ability of SARS-CoV-2 in cells ([4]; FIG. 4): significantly inhibits the replication ability of SARS-CoV-2 in cells | cytopathy caused by novel coronavirus infection ([4]; infected cells, FIG. 3): can prevent cytopathy caused by novel coronavirus infection

From patent publication US11464765B2, “Use of an N-substituted pyridyl benzisoselazolone compound” (SHANGHAITECH UNIVERSITY, priority 2020, dated 2022)
